From patent publication US20050020495A1, “Antiretroviral compositions comprising thymosin alpha peptides and protease inhibitors” (priority 2001, published 2005)
Ends that are not written are not given here.

Key:
HIV [1] = test: Randomised trial of Tα1 injections versus no injections in clinically stable HIV patients; TREC response in PBMCs, lymphocyte subsets, tolerability; type: in vivo, human
Protocol: Efficacy of HIV treatment is shown by evaluating TREC response in peripheral blood mononuclear cells (PBMCs) to treatment with Tα1 plus an HIV inhibitory agent.
Twenty clinically stable patients with viral loads <400 copies/ml and CD4 counts less than 200 cells/μl were randomised to receive 3.2 mg […] subcutaneous injections twice weekly or no injections for 12 weeks. CD4 and CD8 counts, CD45 RO+ and RA+ subsets and T cell re-excision circles (TREC) in peripheral blood mononuclear cells (PBMCs) were measured every four weeks, along with regular clinical assessments and routine laboratory tests.

HIV [2] = conditions: cited from earlier work

With “Thymosin α1 (SDAAVDTSSEITTKDLKEKKEVVEEAEN; not fully specified (N-terminus); ends and bridges not checked; UniProt P06454 2-29, looked up) [Tα1, 28-amino acid thymic peptide hormone with immunomodulatory properties, homologous to a natural product isolated from thymosin fraction 5 of calf thymuses]” the “Signs of toxicity during the trial” value (HIV [1]; 3.2 mg subcutaneous twice weekly for 12 weeks) was “no patients taking the medication developed signs of toxicity”, the Tolerability (HIV [1]; 3.2 mg subcutaneous twice weekly for 12 weeks, 13 patients on Tα1) was “well tolerated” and the “Changes in CD4, CD8 and CD45 lymphocyte subsets versus controls” value (HIV [1]; over the 12 week study period) was “did not differ between the groups”. For the same substance, the “Mean TREC levels relative to control group” value (HIV [1]; week 12) was 20 times, the “Patients with detectable TREC levels versus control patients” value (HIV [1]; week 12) was “far more of the Tα1 group had detectable TREC levels than control patients” and the “TREC levels in PBMCs versus controls” value (HIV [1]; week 12) was “significant increase”. The CD4 counts (HIV [2]; given in combination with either IL-2 or interferon-α) was “induced increases in CD4 counts” and the Systemic adverse reactions (HIV [2]; patients taking zidovudine monotherapy, contrasted with IL-2 or INF-α) was “virtual absence of any significant systemic adverse reactions”.
